Entries after “also recorded” stand apart in the source; their conditions may differ. No end group written: not given here.
Key:
bacterial strains = assay: Antimicrobial activity over the panel of strains; format: cell-based; conditions: range over strains tested
Description: (§1) Initially, the antimicrobial activity was determined by liquid growth inhibition assays, as previously described by Pedron et al.^62. Briefly, Peptone Broth and Potato Dextrose Broth (Invitrogen) were used for antibacterial and antifungal assays, respectively. Two-fold serial dilutions of peptides (0.09-50 μmol L^−1) and microorganisms (Serratia marcescens ATCC 4112, Enterobacter cloacae β-12, Micrococcus luteus A270, Bacillus megaterium ATCC 10778, Bacillus subtilis ATCC 6633, Candida albicans MDM8, and Candida tropicalis IOC 4560) were incubated at 37° C. for 18 h (for bacteria) or 24 h (for fungi), and microbial growth was assessed by absorbance measurements at 595 nm. Experiments were performed in three biological repeats.
(§2) Method. The minimal inhibitory concentration (MIC) against the ESKAPE pathogens was determined using the broth microdilution method^81, 82 in Luria-Bertani (LB) medium. The MIC value was defined as the lowest concentration of peptide at which no microbial growth was observed. A. baumannii ATCC19606, E. coli ATCC11775, E. coli AIC221, E. coli AIC222, K. pneumoniae ATCC13883, S. aureus ATCC12600 P. aeruginosa PAO1, and P. aeruginosa PA14 were incubated on agar plates, and after 24 h, three isolated colonies were inoculated to 5 mL of Luria-Bertani (LB) broth and maintained at 37° C. overnight with shaking. Peptides were then added to 96-well polystyrene microtiter plates at concentrations ranging from 0 to 128 μmol L^−1, and 5×10^5 CFU mL^−1 of each bacterium was inoculated in each well. The plates were incubated at 37° C. for 24 h. Bacterial growth was measured using a microplate reader at 610 nm. Three independent replicates were performed.

E. cloacae β-12 = assay: Liquid growth inhibition assay, MIC; format: cell-based, Enterobacter cloacae; conditions: 37° C., 18 h
Description: as §1

human erythrocytes = assay: Hemolytic activity assay; format: cell-based; conditions: for hemolytic activity: 0.1 to 100 μmol L^−1; for MHC / Hemolytic activity, concentration of peptide needed to kill 10% of red blood cells: human erythrocytes, 1 h; for MHC: room temperature, concentration with approximately 0% of hemolytic activity
Description: Method. Assays against freshly collected human erythrocytes were performed following protocols described by Pedron et al. 62. Briefly, peptide aliquots at concentrations ranging from 0.1 to 100 μmol L−1 were incubated with a suspension of erythrocytes at room temperature for 1 h. The samples were then centrifuged, and the absorbance of the supernatant was measured at 405 nm. The MHC (maximal non-hemolytic concentration) was determined as the maximal concentration at which 100% of the erythrocytes were viable. The surfactant SDS and PBS buffer were used as positive88, 89 and negative controls, respectively. Sodium heparin was used as an anticoagulant when collecting human blood. Three biological repeats were performed.

B. megaterium ATCC 10778 = assay: Liquid growth inhibition assay, MIC; format: cell-based, Bacillus megaterium; conditions: 37° C., 18 h
Description: as §1

S. marcescens ATCC 4112 = assay: Liquid growth inhibition assay, MIC; format: cell-based, Serratia marcescens; conditions: 37° C., 18 h
Description: as §1

C. tropicalis IOC 4560 = assay: Liquid growth inhibition assay, MIC (antifungal); format: cell-based, Candida tropicalis; conditions: 37° C., 24 h
Description: as §1

[1] = test system: S. epidermidis ATCC 12228; assay: Liquid growth inhibition assay, MIC; format: cell-based; conditions: 37° C., 18 h
[2] = Resistance to degradation in fetal bovine serum; format: in vitro ADME; conditions: for remaining at 0.5 h: read-out: remaining peptide, 30 min; for remaining at 1 h: read-out: remaining peptide, 1 h; for remaining at 2 h: read-out: remaining peptide, 2 h
Description: The resistance to proteolytic degradation of the hybrid peptides was assessed by exposing them for 6 h to serum peptidases in a fetal bovine serum solution^68, 69 (FIG. 5a and Table S4). The peptide degradation kinetics were calculated by integrating the peak area of the peak in relation to the peptide at the beginning of the experiment (time=0) and comparing it to the integrated peak area relative to the peptides after exposure to the enzymes at time points: 0.5, 1, 2, 4, and 6 h (FIG. 5a and Table S4). […] However, AV was resistant to degradation against proteases, with almost 40% peptide content remaining after 4 h of exposure (FIG. 5a and Table S4). […] VP was almost entirely degraded after 30 min (22% of peptide remaining). […] D-amino acid substitutions have been used as alternatives to prevent the degradation of AMPs. For example, Qiu et. al. described a protonectin analog with a D-Lys residue in position 10 as an alternative to protonectin; this analog is not degraded and has higher antimicrobial activity against bacteria and fungi than the original peptide.
Methods. Stability assays were performed following the protocol described by Torres et al.^71. Briefly, a peptide solution was added to GIBCO fetal bovine serum diluted to 25% in water and kept at 37° C. The degradation kinetics were monitored by liquid chromatography and the percentage of peptide remaining was calculated by integrating the peptide peak area. The experiments were performed as three independent replicates, and aliquots were taken at 0, 0.5, 1, 2, 4, and 6 h.

C. albicans MDM8 = assay: Liquid growth inhibition assay, MIC (antifungal); format: cell-based, Candida albicans; conditions: 37° C., 24 h
Description: as §1

M. luteus A270 = assay: Liquid growth inhibition assay, MIC; format: cell-based, Micrococcus luteus; conditions: 37° C., 18 h
Description: as §1

K. pneumoniae ATCC13883 = assay: Broth microdilution MIC, ESKAPE pathogens; format: cell-based; conditions: LB, 37° C., 24 h
Description: as §2

S. aureus ATCC12600 = assay: Broth microdilution MIC, ESKAPE pathogens; format: cell-based; conditions: LB, 37° C., 24 h
Description: as §2

P. aeruginosa PA14 = assay: Broth microdilution MIC, ESKAPE pathogens; format: cell-based; conditions: LB, 37° C., 24 h
Description: as §2

E. coli AIC222 = assay: Broth microdilution MIC, ESKAPE pathogens; format: cell-based; conditions: LB, 37° C., 24 h
Description: as §2

P. aeruginosa PAO1 = assay: Broth microdilution MIC, ESKAPE pathogens; format: cell-based; conditions: LB, 37° C., 24 h
Description: as §2

A. baumannii ATCC19606 = assay: Broth microdilution MIC, ESKAPE pathogens; format: cell-based; conditions: LB, 37° C., 24 h
Description: as §2

E. coli AIC221 = assay: Broth microdilution MIC, ESKAPE pathogens; format: cell-based; conditions: LB, 37° C., 24 h
Description: as §2

E. coli ATCC11775 = assay: Broth microdilution MIC, ESKAPE pathogens; format: cell-based; conditions: LB, 37° C., 24 h
Description: as §2

[3] = test system: MCF-7 human breast cancer cells; assay: Anticancer activity, MTT assay; format: cell-based; conditions: MTT
Description: The anticancer activity assays were performed using MCF-10A human breast epithelial cells and MCF-7 mammary cancer cells as previously described by Pedron et al. 86. Briefly, the day before treatment, the cells were incubated at 37° C. and 5% CO2 for 24 h. The cells were treated with peptides ranging from 12.5 to 100 μmol L^−1 (MCF10-A cells) and 0.8 to 100 μmol L^−1 (MCF-7 cells) for 4 h and 24 h at 37° C., and cell viability was measured using 3-(4,5-Dimethylthiazol-2-yl)-2,5-diphenyltetrazolium bromide (MTT) assays 87. Three independent replicates were performed in each case.

[4] = bovine, fetal bovine serum, 25% in water, fetal bovine serum 25% in water, 37° C., 30 min
[5] = bovine, fetal bovine serum, 25% in water, fetal bovine serum 25% in water, 37° C.

| Substance | MIC E. cloacae β-12 (E. cloacae β-12) | hemolytic activity (human erythrocytes) | MHC (human erythrocytes) | MIC B. megaterium ATCC 10778 (B. megaterium ATCC 10778) | MIC S. marcescens ATCC 4112 (S. marcescens ATCC 4112) | MIC C. tropicalis IOC 4560 (C. tropicalis IOC 4560) | MIC S. epidermidis ATCC 12228 [1] | remaining at 0.5 h [2, 4] | resistance to degradation ([2]; fetal bovine serum) | MIC C. albicans MDM8 (C. albicans MDM8) | MIC M. luteus A270 (M. luteus A270) | Hemolytic activity, concentration of peptide needed to kill 10% of red blood cells (human erythrocytes) | remaining at 1 h [2, 5] | remaining at 2 h [2, 5] | MIC K. pneumoniae ATCC13883 (K. pneumoniae ATCC13883) | MIC S. aureus ATCC12600 (S. aureus ATCC12600) | MIC P. aeruginosa PA14 (P. aeruginosa PA14) | MIC E. coli AIC222 (E. coli AIC222) | MIC P. aeruginosa PAO1 (P. aeruginosa PAO1) | MIC A. baumannii ATCC19606 (A. baumannii ATCC19606) | also measured |
| --- | --- | --- | --- | --- | --- | --- | --- | --- | --- | --- | --- | --- | --- | --- | --- | --- | --- | --- | --- | --- | --- |
| FLGSLWRKAGTVF-NH2 [VD] | >50 µM | minimal hemolytic activity; also recorded: no hemolytic activity was detected | >100 µmol/L | 6.3 µM | 12.5 µM | 6.3 µM | >50 µM | ~10% | the greatest resistance to proteolytic degradation | 25 µM | 25 µM | – | – | – | – | – | – | – | – | – | MIC range of the peptide over the strains (bacterial strains): 6.3 to 25 µM; remaining at 6 h ([2]; bovine, fetal bovine serum, 25% in water, fetal bovine serum 25% in water, 37° C., 6 h, read-out: remaining peptide, 6 h): ~50% |
| FLGTLWGGAKGVF-NH2 [VP] | >50 µM | minimal hemolytic activity | >100 µmol/L | >50 µM | >50 µM | >50 µM | >50 µM | 22% | – | >50 µM | >50 µM | 100 µmol/L | < 20% | < 10% | 128 µM | 128 µM | 128 µM | 128 µM | 128 µM | 128 µM | remaining peptide, 30 min ([2]; fetal bovine serum 25% in water, 37° C., 30 min): ~20%; MIC E. coli AIC221 (E. coli AIC221): 128 µM; MIC E. coli ATCC11775 (E. coli ATCC11775): 128 µM |
| ILGTILGLLKGL-NH2 [Protonectin, reference compound] | 25 µM | – | 12.5 µmol/L | 3.1 µM | 6.3 µM | 12.5 µM | 25 µM | – | quickly degraded | 12.5 µM | 3.1 µM | 12.5 µmol/L | – | – | 64 µM | 8 µM | 128 µM | 8 µM | 128 µM | 16 µM | MCF-7 4 h LD50 ([3]; MCF-7, 4 h): 25 µmol/L; MCF-7 24 h LD50 ([3]; MCF-7, 24 h): 25 µmol/L; MIC E. coli AIC221 (E. coli AIC221): 16 µM; MIC E. coli ATCC11775 (E. coli ATCC11775): 16 µM |
| H-GLLKRIKTLL-NH2 [Anoplin, reference compound] | 3.1 µM | – | 50 µmol/L | 0.8 µM | 6.3 µM | 1.6 µM | 6.3 µM | ~20% | – | 1.6 µM | 1.6 µM | 50 µmol/L | ~20% | ~10% | – | – | – | – | – | – | – |
